Reference: patent publication US20060069132A1, “Azolecarboxamide herbicides” (priority 2004, published 2006)

How the values were obtained:
barnyardgrass [1] = test: Test B pre-/postemergence herbicide test; format: in vivo, Echinochloa crus-galli
How it was run: (§1)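 Evaluation is visual, comparing treated with control plants on a scale where 0 means no effect and 100 means full control. Treatments were preemergence, or postemergence on seedlings 2–18 cm tall, and held 13–15 days in the greenhouse.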

Surinam grass = test: Test B pre-/postemergence herbicide test; format: in vivo, Urochloa decumbens; conditions: for Surinam Grass plant response rating: postemergence, visual rating
How it was run: as §1

cocklebur = test: Test B pre-/postemergence herbicide test; format: in vivo, Xanthium strumarium
How it was run: as §1

corn = test: Test B pre-/postemergence herbicide test; format: in vivo, Zea mays
How it was run: as §1

large crabgrass = test: Test B pre-/postemergence herbicide test; format: in vivo, Digitaria sanguinalis
How it was run: as §1

giant foxtail = test: Test B pre-/postemergence herbicide test; format: in vivo, Setaria faberi
How it was run: as §1

lambsquarters = test: Test B pre-/postemergence herbicide test; format: in vivo, Chenopodium album; conditions: for Lambsquarters plant response rating: postemergence, visual rating
How it was run: as §1

morningglory = test: Test B pre-/postemergence herbicide test; format: in vivo, Ipomoea coccinea; conditions: for Morningglory plant response rating: postemergence, visual rating
How it was run: as §1

pigweed = test: Test B pre-/postemergence herbicide test; format: in vivo, Amaranthus retroflexus; conditions: for Pigweed plant response rating: postemergence, visual rating
How it was run: as §1

velvetleaf = test: Test B pre-/postemergence herbicide test; format: in vivo, Abutilon theophrasti; conditions: for Velvetleaf plant response rating: postemergence, visual rating
How it was run: as §1

wheat = test: Test B postemergence herbicide test; format: in vivo, Triticum aestivum; parameters: key to Wheat plant response rating: 0 = no effect, 100 = complete control; conditions: scale 0 (no effect) to 100 (complete control); for Wheat plant response rating: postemergence, visual rating
How it was run: (§2)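 Each value is a visual 0–100 response rating taken against controls 13 to 15 days after treatment in the greenhouse. Plants received formulated chemical postemergence at the 1- to 4-leaf stage or, in flooded paddy, at the 2-leaf stage.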

wild oat = test: Test B postemergence herbicide test; format: in vivo, Avena fatua; conditions: scale 0 (no effect) to 100 (complete control); for Oat, Wild plant response rating: postemergence, visual rating
How it was run: as §2

rice = test: Test B flooded paddy test; format: in vivo, Oryza sativa; conditions: 1000 g ai/ha, visual rating, scale 0 to 100 (0 no effect, 100 complete control), 13 to 15 days
How it was run: as §2

ducksalad = test: Test B flooded paddy test; format: in vivo, Heteranthera limosa; conditions: 1000 g ai/ha, visual rating, scale 0 to 100 (0 no effect, 100 complete control), 13 to 15 days
How it was run: as §2

barnyardgrass [2] = test: Test B flooded paddy test; format: in vivo, Echinochloa crus-galli; conditions: 1000 g ai/ha, visual rating, scale 0 to 100 (0 no effect, 100 complete control), 13 to 15 days
How it was run: as §2

[3] = 500 g ai/ha, visual rating 0-100, 0 no effect, 100 complete control, preemergence
[4] = postemergence, 125 g ai/ha, visual rating, scale 0 (no effect) to 100 (complete control)
[5] = postemergence, 500 g ai/ha, visual rating, scale 0 (no effect) to 100 (complete control)
[6] = preemergence, 125 g ai/ha, 0 to 100 scale, 0 is no effect, 100 is complete control
[7] = 125 g ai/ha, scale 0 (no effect) to 100 (complete control)
[8] = 500 g ai/ha, scale 0 (no effect) to 100 (complete control)
[9] = Postemergence, 500 g ai/ha, visual rating after 13 to 15 days, scale 0 (no effect) to 100 (complete control)
[10] = Preemergence, 500 g ai/ha, scale 0 to 100
[11] = Postemergence, 500 g ai/ha, visual rating after 13 to 15 days
[12] = 125 g ai/ha, 0 = no effect, 100 = complete control, preemergence

For `CCCCOc1cccc(NC(=O)c2cc(C(C)(C)C)nn2CC)c1` [Compound 137], the “Plant response rating, Barnyardgrass” value (barnyardgrass [1]; [3]) was 70, the “Barnyardgrass plant response rating” value (barnyardgrass [1]; [4]) was 30 and the “Barnyardgrass plant response rating” value (barnyardgrass [1]; [5]) was 40. The “Plant response rating, Barnyardgrass” value (barnyardgrass [1]; [6]) was 10, the “Plant response rating, Surinam Grass” value (Surinam grass; [3]) was 80 and the “Surinam Grass plant response rating” value (Surinam grass; [7]) was 20. The “Surinam Grass plant response rating” value (Surinam grass; [8]) was 70, the “Plant response rating, Surinam Grass” value (Surinam grass; [6]) was 20 and the “Plant response rating, Cocklebur” value (cocklebur; [3]) was 0. The “Cocklebur plant response rating” value (cocklebur; [4]) was 50, the “Cocklebur plant response rating” value (cocklebur; [5]) was 100 and the “Plant response rating, Cocklebur” value (cocklebur; [6]) was 0. For the same compound, the “Plant response rating, Corn” value (corn; [3]) was 10, the “Corn plant response rating” value (corn; [4]) was 10 and the “Corn plant response rating” value (corn; [5]) was 20. The “Plant response rating, Corn” value (corn; [6]) was 10, the “Plant response rating, Crabgrass, Large” value (large crabgrass; [3]) was 100 and the “Crabgrass, Large plant response rating” value (large crabgrass; [4]) was 10. The “Crabgrass, Large plant response rating” value (large crabgrass; [5]) was 30, the “Plant response rating, Crabgrass, Large” value (large crabgrass; [6]) was 80 and the “Plant response rating, Foxtail, Giant” value (giant foxtail; [3]) was 80. For the same compound, the “Foxtail, Giant plant response rating” value (giant foxtail; [4]) was 10, the “Foxtail, Giant plant response rating” value (giant foxtail; [5]) was 20 and the “Plant response rating, Foxtail, Giant” value (giant foxtail; [6]) was 40. For the same compound, the “Plant response rating, Lambsquarters” value (lambsquarters; [3]) was 80, the “Lambsquarters plant response rating” value (lambsquarters; [7]) was 80 and the “Lambsquarters plant response rating” value (lambsquarters; [8]) was 80. For the same compound, the “Plant response rating, Lambsquarters” value (lambsquarters; [6]) was 10, the “Plant response rating, Morningglory” value (morningglory; [3]) was 20 and the “Morningglory plant response rating” value (morningglory; [7]) was 0. The “Morningglory plant response rating” value (morningglory; [8]) was 60, the “Plant response rating, Morningglory” value (morningglory; [6]) was 0 and the “Plant response rating, Pigweed” value (pigweed; [3]) was 100. For the same compound, the “Pigweed plant response rating” value (pigweed; [7]) was 90, the “Pigweed plant response rating” value (pigweed; [8]) was 100 and the “Plant response rating, Pigweed” value (pigweed; [6]) was 80. For the same compound, the “Plant response rating, Velvetleaf” value (velvetleaf; [3]) was 60, the “Velvetleaf plant response rating” value (velvetleaf; [7]) was 40 and the “Velvetleaf plant response rating” value (velvetleaf; [8]) was 60. The “Plant response rating, Velvetleaf” value (velvetleaf; [6]) was 10, the “Wheat plant response rating” value (wheat; 125 g ai/ha) was 10 and the “Wheat plant response rating” value (wheat; 500 g ai/ha) was 20. The “Oat, Wild plant response rating” value (wild oat; 125 g ai/ha) was 30, the “Oat, Wild plant response rating” value (wild oat; 500 g ai/ha) was 70 and the “Rice plant response rating” value (rice) was 20. For the same compound, the “Ducksalad plant response rating” value (ducksalad) was 30 and the “Barnyardgrass plant response rating” value (barnyardgrass [2]) was 20.

With `CCN1CCc2c(NC(=O)c3cc(C(C)(C)C)nn3CC)cccc2C1=O` [Compound 63] the “Plant response rating, Barnyardgrass” value (barnyardgrass [1]; [9]) was 20, the “Barnyardgrass plant response rating” value (barnyardgrass [1]; [10]) was 100 and the “Barnyardgrass plant response rating” value (barnyardgrass [1]; [4]) was 10. The “Plant response rating, Barnyardgrass” value (barnyardgrass [1]; [6]) was 60, the “Plant response rating, Surinam Grass” value (Surinam grass; [9]) was 20 and the “Surinam Grass plant response rating” value (Surinam grass; [7]) was 10. For the same compound, the “Plant response rating, Surinam Grass” value (Surinam grass; [6]) was 20, the “Plant response rating, Cocklebur” value (cocklebur; [9]) was 70 and the “Cocklebur plant response rating” value (cocklebur; [10]) was 10. For the same compound, the “Cocklebur plant response rating” value (cocklebur; [4]) was 60, the “Plant response rating, Cocklebur” value (cocklebur; [6]) was 0 and the “Plant response rating, Corn” value (corn; [9]) was 20. For the same compound, the “Corn plant response rating” value (corn; [10]) was 30, the “Corn plant response rating” value (corn; [4]) was 20 and the “Plant response rating, Corn” value (corn; [6]) was 0. For the same compound, the “Plant response rating, Crabgrass, Large” value (large crabgrass; [9]) was 20, the “Crabgrass, Large plant response rating” value (large crabgrass; [10]) was 100 and the “Crabgrass, Large plant response rating” value (large crabgrass; [4]) was 10. For the same compound, the “Plant response rating, Crabgrass, Large” value (large crabgrass; [6]) was 70, the “Plant response rating, Foxtail, Giant” value (giant foxtail; [9]) was 20 and the “Foxtail, Giant plant response rating” value (giant foxtail; [10]) was 100. For the same compound, the “Foxtail, Giant plant response rating” value (giant foxtail; [4]) was 10, the “Plant response rating, Foxtail, Giant” value (giant foxtail; [6]) was 60 and the “Plant response rating, Lambsquarters” value (lambsquarters; [9]) was 80. The “Lambsquarters plant response rating” value (lambsquarters; [7]) was 80, the “Plant response rating, Lambsquarters” value (lambsquarters; [6]) was 90 and the “Plant response rating, Morningglory” value (morningglory; [9]) was 20. The “Morningglory plant response rating” value (morningglory; [7]) was 20, the “Plant response rating, Morningglory” value (morningglory; [6]) was 0 and the “Plant response rating, Pigweed” value (pigweed; [9]) was 70. The “Pigweed plant response rating” value (pigweed; [7]) was 40, the “Plant response rating, Pigweed” value (pigweed; [6]) was 100 and the “Plant response rating, Velvetleaf” value (velvetleaf; [9]) was 50. For the same compound, the “Velvetleaf plant response rating” value (velvetleaf; [7]) was 40, the “Plant response rating, Velvetleaf” value (velvetleaf; [6]) was 10 and the “Plant response rating, Wheat” value (wheat; [11]) was 10. The “Wheat plant response rating” value (wheat; 125 g ai/ha) was 10, the “Plant response rating, Oat, Wild” value (wild oat; [11]) was 30 and the “Oat, Wild plant response rating” value (wild oat; 125 g ai/ha) was 20. The “Rice plant response rating” value (rice) was 60, the “Ducksalad plant response rating” value (ducksalad) was 90 and the “Barnyardgrass plant response rating” value (barnyardgrass [2]) was 80.

With `CCc1nc(C(C)(C)C)sc1C(=O)Nc1cccc(C(=O)N(CC)CC)c1` [Compound 205] the “Barnyardgrass plant response rating (0 to 100 scale)” value (barnyardgrass [1]; [12]) was 50, the “Plant response rating, Barnyardgrass” value (barnyardgrass [1]; [3]) was 90 and the “Barnyardgrass plant response rating” value (barnyardgrass [1]; [4]) was 10. For the same compound, the “Barnyardgrass plant response rating” value (barnyardgrass [1]; [5]) was 20, the “Surinam Grass plant response rating (0 to 100 scale)” value (Surinam grass; [12]) was 20 and the “Plant response rating, Surinam Grass” value (Surinam grass; [3]) was 80. For the same compound, the “Surinam Grass plant response rating” value (Surinam grass; [7]) was 20, the “Surinam Grass plant response rating” value (Surinam grass; [8]) was 20 and the “Cocklebur plant response rating (0 to 100 scale)” value (cocklebur; [12]) was 10. For the same compound, the “Plant response rating, Cocklebur” value (cocklebur; [3]) was 20, the “Cocklebur plant response rating” value (cocklebur; [4]) was 40 and the “Cocklebur plant response rating” value (cocklebur; [5]) was 80. For the same compound, the “Corn plant response rating (0 to 100 scale)” value (corn; [12]) was 10, the “Plant response rating, Corn” value (corn; [3]) was 40 and the “Corn plant response rating” value (corn; [4]) was 20. For the same compound, the “Corn plant response rating” value (corn; [5]) was 20, the “Crabgrass, Large plant response rating (0 to 100 scale)” value (large crabgrass; [12]) was 60 and the “Plant response rating, Crabgrass, Large” value (large crabgrass; [3]) was 90. The “Crabgrass, Large plant response rating” value (large crabgrass; [4]) was 10, the “Crabgrass, Large plant response rating” value (large crabgrass; [5]) was 20 and the “Foxtail, Giant plant response rating (0 to 100 scale)” value (giant foxtail; [12]) was 50. The “Plant response rating, Foxtail, Giant” value (giant foxtail; [3]) was 100, the “Foxtail, Giant plant response rating” value (giant foxtail; [4]) was 20 and the “Foxtail, Giant plant response rating” value (giant foxtail; [5]) was 30. The “Lambsquarters plant response rating (0 to 100 scale)” value (lambsquarters; [12]) was 80, the “Plant response rating, Lambsquarters” value (lambsquarters; [3]) was 100 and the “Lambsquarters plant response rating” value (lambsquarters; [7]) was 60. The “Lambsquarters plant response rating” value (lambsquarters; [8]) was 70, the “Morningglory plant response rating (0 to 100 scale)” value (morningglory; [12]) was 0 and the “Plant response rating, Morningglory” value (morningglory; [3]) was 30. For the same compound, the “Morningglory plant response rating” value (morningglory; [7]) was 30, the “Morningglory plant response rating” value (morningglory; [8]) was 50 and the “Pigweed plant response rating (0 to 100 scale)” value (pigweed; [12]) was 100. The “Plant response rating, Pigweed” value (pigweed; [3]) was 100, the “Pigweed plant response rating” value (pigweed; [7]) was 40 and the “Pigweed plant response rating” value (pigweed; [8]) was 50. For the same compound, the “Velvetleaf plant response rating (0 to 100 scale)” value (velvetleaf; [12]) was 30, the “Plant response rating, Velvetleaf” value (velvetleaf; [3]) was 80 and the “Velvetleaf plant response rating” value (velvetleaf; [7]) was 20. For the same compound, the “Velvetleaf plant response rating” value (velvetleaf; [8]) was 40, the “Wheat plant response rating” value (wheat; 125 g ai/ha) was 10 and the “Wheat plant response rating” value (wheat; 500 g ai/ha) was 20. For the same compound, the “Oat, Wild plant response rating” value (wild oat; 125 g ai/ha) was 20, the “Oat, Wild plant response rating” value (wild oat; 500 g ai/ha) was 30 and the “Rice plant response rating” value (rice) was 60. For the same compound, the “Ducksalad plant response rating” value (ducksalad) was 50 and the “Barnyardgrass plant response rating” value (barnyardgrass [2]) was 70.
